Source: patent publication US7067520B2, “Preventive or therapeutic medicines for diabetes containing fused-heterocyclic compounds or their salts” (Ishihara Sangyo Kaisha, Ltd., priority 2000, dated 2006)

SMILES	melting point
CSc1nc2ccnn2c(N(Cc2ccccn2)Cc2ccccn2)c1C#N [compound 6]	139 °C
CSc1nc2ccnn2c(NCOCc2ccccc2)c1C#N [compound 10]	63 to 64 °C
CSc1nc2ccnn2c(NCCc2ccccc2)c1C#N [compound 12]	107 °C
CSc1nc2ccnn2c(NCc2ccc([N+](=O)[O-])cc2)c1C#N [compound 16]	215 °C
CSc1nc2ccnn2c(NCC(=O)c2ccccc2)c1C#N [compound 18]	212 to 213 °C
COC(=O)c1ccc(CNc2c(C#N)c(SC)nc3ccnn23)cc1 [compound 23]	171 °C
CSc1nc2ccnn2c(NCc2cccc3ccccc23)c1C#N [compound 30]	195 °C
CSc1nc2ccnn2c(NCc2ccc(Cl)cc2)c1C#N [compound 31]	167 °C
CSc1nc2ccnn2c(NCc2cccc(Cl)c2)c1C#N [compound 32]	155 °C
CSc1nc2nc(SC)c(C#N)c(NCc3ccccc3)n2n1 [compound 36]	154 °C
CSc1nc2nc(SC)c(C#N)c(NCc3ccncc3)n2n1 [compound 38]	230 to 233 °C
CSc1nc(NCc2ccccc2)n2nccc2n1 [compound 39]	133 °C
CSc1nc2nccn2c(NCc2ccccc2)c1C#N [compound 42]	179 °C
COc1ccc(CNc2c(C#N)c(SC)nc3ccnn23)cc1 [compound 56]	137 °C
CSc1nc2ccnn2c(N)c1S(C)(=O)=O [compound 58]	230 to 233 °C
C#CCNc1c(S(C)(=O)=O)c(SC)nc2ccnn12 [compound 59]	175 °C
CSc1nc2ccnn2c(NCc2ccccc2)c1S(C)(=O)=O [compound 61]	163 to 164 °C
CSc1nc2ccnn2c(NCc2ccncc2)c1S(C)(=O)=O [compound 63]	195 to 196 °C
CCSc1nc2ccnn2c(NCc2ccccc2)c1C#N [compound 67]	112 to 113.4 °C
N#Cc1c(SCc2ccccc2)nc2ccnn2c1NCc1ccccc1 [compound 70]	121 to 122.2 °C
C=CCSc1nc2ccnn2c(NCc2ccncc2)c1C#N [compound 76]	178.8 to 179.8 °C
C=CCSc1nc2ccnn2c(NCc2ccccc2)c1C#N [compound 77]	90 to 91.5 °C
N#Cc1c(-c2ccccc2)nc2ccnn2c1NCc1ccccc1 [compound 86]	120 to 122 °C
N#Cc1c(Cc2ccccc2)nc2ccnn2c1NCc1ccccc1 [compound 88]	163 °C
N#Cc1c(-c2ccccc2)nc2ccnn2c1NCc1ccncc1 [compound 89]	199 to 201 °C
N#Cc1c(Cc2ccccc2)nc2ccnn2c1NCc1ccncc1 [compound 90]	195 to 198 °C
C#CCSc1nc2ccnn2c(NCc2ccccc2)c1C#N [compound 95]	142.2 to 144.2 °C

SMILES	melting point
C#CCSc1nc2ccnn2c(NCc2ccncc2)c1C#N [compound 96]	208.5 to 208.7 °C
N#Cc1c(SC2CCCC2)nc2ccnn2c1NCc1ccccc1 [compound 104]	115.8 to 116.6 °C
COCSc1nc2ccnn2c(NCc2ccccc2)c1C#N [compound 107]	137.4 to 141.4 °C
CSc1nc2cccn2c(NC2CCCCC2)c1C#N [compound 109]	117 to 118 °C
CCC(CC)Sc1nc2ccnn2c(NCc2ccccc2)c1C#N [compound 114]	107 to 108.3 °C
CCC(CC)Sc1nc2ccnn2c(NCc2ccncc2)c1C#N [compound 115]	129 to 133.4 °C
CCOCSc1nc2ccnn2c(NCc2ccccc2)c1C#N [compound 117]	130.5 to 133.5 °C
COC(=O)c1c(SC)nc2ccnn2c1Cl [compound 119]	105 to 113 °C
COC(=O)c1c(SC)nc2ccnn2c1NC1CCCC1 [compound 123]	84.5 to 85.5 °C
CSc1nc2ccnn2c(NCc2ccccc2)c1[N+](=O)[O-] [compound 125]	136.5 to 138.5 °C
CSc1nc2ccnn2c(NC2CCCC2)c1[N+](=O)[O-] [compound 127]	132 to 134 °C
CSc1nc2ccnn2c(NCc2ccccc2)c1C(=O)O [compound 128]	162.7 to 164 °C
CSc1nc2ccnn2c(NCc2ccncc2)c1C(=O)O [compound 129]	155 to 157 °C
CSc1nc2ccnn2c(Nc2cccc(C#N)c2)c1C(=O)O [compound 134]	162.5 to 164.5 °C
CSc1nc2ccnn2c(Cl)c1C(=O)OCc1ccccc1 [compound 146]	52 to 54 °C
CSc1nc2ccnn2c(NCc2ccncc2)c1C(=O)OCc1ccccc1 [compound 147]	122 to 123 °C
CSc1nc2ccnn2c(Nc2cccc(C#N)c2)c1C(=O)OCc1ccccc1 [compound 148]	141 to 142 °C
CSc1nc2ccnn2c(Nc2ccc(S(=O)(=O)N(C)C)cc2)c1C#N [compound 150]	303 to 306 °C (dec.)
CSc1nc2ccnn2c(Nc2cccc(S(=O)(=O)N(C)C)c2)c1C#N [compound 151]	205 to 208 °C
COc1nc2ccnn2c(NCc2ccncc2)c1C#N [compound 153]	193 to 195 °C
COC(=O)c1c(SC)nc2ccnn2c1O [compound 155]	192 to 194 °C
CSc1nc2ccnn2c(Nc2ccc3c(c2)CCC3)c1C#N [compound 165]	146 to 148 °C
CSc1nc2ccnn2c(Nc2ccc(OC(F)(F)F)cc2)c1C#N [compound 167]	243 to 244 °C
COC(=O)c1ccc(Nc2c(C#N)c(SC)nc3ccnn23)cc1 [compound 171]	205 to 206 °C
CCOC(=O)c1ccc(Nc2c(C#N)c(SC)nc3ccnn23)cc1 [compound 175]	191 to 192 °C
CSc1nc2ccnn2c(Nc2ccc(C(=O)O)cc2)c1C#N [compound 176]	> 250 °C

Further lines, results first:

melting point	SMILES
> 280 °C	CSc1nc2ccnn2c(NC(C)=O)c1C#N [Compound No. 7]
194 °C	CSc1nc2ccnn2c(OCc2ccccc2)c1C#N [Compound No. 51, 7-benzyloxy-5-methylthiopyrazolo[1,5-a]pyrimidine-6-carbonitrile]
110 °C	CSc1nc2ccnn2c(NCc2ccco2)c1C#N [Compound No. 78, 7-furfurylamino-5-methylthiopyrazolo[1,5-a]pyrimidine-6-carbonitrile]
> 240 °C	CSc1nc2ccnn2c(N)c1C#N [compound 1, 7-amino-5-methylthiopyrazolo[1,5-a]pyrimidine-6-carbonitrile]
184 to 185 °C	CCOC(=O)CNc1c(C#N)c(SC)nc2ccnn12 [compound 13]
87 to 88 °C	CSc1nc2ccnn2c(NCCC(C)C)c1C#N [compound 19]
160 °C	CSc1nc2ccnn2c(NCc2ccccc2Cl)c1C#N [compound 33]
188 °C	CSc1nc2ccnn2c(N=Cc2ccccc2)c1C#N [compound 34]
> 250 °C	CSc1nc2nc(SC)c(C#N)c(N)n2n1 [compound 35]
> 250 °C	CSc1nc2ccnn2c(N)c1C#N [compound 41]
233 °C	CSc1nc2cc(-c3ccccc3)nn2c(N)c1C#N [compound 44]
> 250 °C	CSc1nc2nc3ccccc3n2c(N)c1C#N [compound 45]
> 250 °C	CSc1nc2ccnn2c(O)c1C#N [compound 49, 7-hydroxy-5-methylthiopyrazolo[1,5-a]pyrimidine-6-carbonitrile]
> 250 °C	CSc1nc2c(Br)cnn2c(N)c1C#N [compound 54]
184 °C	CSc1nc2c(Br)cnn2c(NCc2ccccc2)c1C#N [compound 55]
201 to 202 °C	CSc1nc2ccnn2c(Cl)c1C#N [compound 62, 7-chloro-5-methylthiopyrazolo[1,5-a]pyrimidine-6-carbonitrile]
> 240 °C	CCSc1nc2ccnn2c(N)c1C#N [compound 66]
245.6 to 245.9 °C	N#Cc1c(SCc2ccccc2)nc2ccnn2c1N [compound 69]
258.5 to 259 °C	C=CCSc1nc2ccnn2c(N)c1C#N [compound 75]

melting point	SMILES
260 to 263 °C	CSc1nc2ccnn2c(Nc2ccncc2)c1C#N [compound 81]
207 °C	CSc1nc2ccnn2c(NCC#N)c1C#N [compound 84]
> 250 °C	N#Cc1c(-c2ccccc2)nc2ccnn2c1N [compound 85]
242 °C	N#Cc1c(Cc2ccccc2)nc2ccnn2c1N [compound 87]
> 250 °C	N#Cc1c(C2CCCCC2)nc2ccnn2c1N [compound 91]
206 °C (dec.)	C#CCSc1nc2ccnn2c(N)c1C#N [compound 94]
270.5 to 271.3 °C	N#Cc1c(SC2CCCC2)nc2ccnn2c1N [compound 103]
214 to 216 °C (dec.)	COCSc1nc2ccnn2c(N)c1C#N [compound 106]
242 to 243.8 °C	CCC(CC)Sc1nc2ccnn2c(N)c1C#N [compound 113]
285 to 288 °C (dec.)	CSc1nc2ccnn2c(Nc2ccc(S(N)(=O)=O)cc2)c1C#N [compound 149]
> 280 °C	CSc1nc2ccnn2c(Nc2cccc(S(N)(=O)=O)c2)c1C#N [compound 152]
118 to 120 °C	CSc1nc2ccnn2c(N2CCC(C)CC2)c1C#N [compound 160]
161 to 162 °C	CSc1nc2ccnn2c(Nc2cccc(Cl)c2)c1C#N [compound 162]
140 to 141 °C	CSc1nc2ccnn2c(Nc2ccc3ncsc3c2)c1C#N [compound 166]
214 to 215 °C	COc1ccc(Nc2c(C#N)c(SC)nc3ccnn23)cc1 [compound 169]
250 to 256 °C	CSc1nc2ccnn2c(Nc2ccc(O)cc2)c1C#N [compound 170]
> 250 °C	CSc1nc2ccnn2c(NOc2ccccc2)c1C#N [compound 179]
142 °C	CSc1nc2ccnn2c(NCc2cccs2)c1C#N [compound 180]
